Test results reported in patent US12679878B2, “CRF2 receptor agonists and their use in therapy” (SANOFI, priority 2020, dated 2026).
Read-outs that look alike come from different tables or passages of the source. Starred links: 1 amine or outer side, 2 acyl side, 3 side chain; linkers in the order of their positions; H or OH if unused. Non-standard residues stand in square brackets, D forms with d. Residues, ends and D or L forms follow the SMILES beside them. Groups on a side chain read outwards from the residue. *: point of attachment. C18 diacid = O=C(O)CCCCCCCCCCCCCCCCC(=O)*; γGlu = O=C(O)[C@H](CCC(=O)[*:2])N[*:1]; AEEA = NCCOCCOCC(=O)O; Aib = CC(C)(N)C(=O)O

What was measured:
human CRF2α receptor = molecular target: T1, human CRF2α receptor (Homo sapiens, UniProt Q13324); experiment: cAMP agonism at human CRF2 α receptor in TeloHEAC cells (Example 7); format: cell-based; settings: cAMP HTRF, TeloHEAC cells stably expressing human CRF2 α
T1 construct: expressed in transfected cells; host or cells: TeloHEAC
T1 sequence (Q13324 1-411): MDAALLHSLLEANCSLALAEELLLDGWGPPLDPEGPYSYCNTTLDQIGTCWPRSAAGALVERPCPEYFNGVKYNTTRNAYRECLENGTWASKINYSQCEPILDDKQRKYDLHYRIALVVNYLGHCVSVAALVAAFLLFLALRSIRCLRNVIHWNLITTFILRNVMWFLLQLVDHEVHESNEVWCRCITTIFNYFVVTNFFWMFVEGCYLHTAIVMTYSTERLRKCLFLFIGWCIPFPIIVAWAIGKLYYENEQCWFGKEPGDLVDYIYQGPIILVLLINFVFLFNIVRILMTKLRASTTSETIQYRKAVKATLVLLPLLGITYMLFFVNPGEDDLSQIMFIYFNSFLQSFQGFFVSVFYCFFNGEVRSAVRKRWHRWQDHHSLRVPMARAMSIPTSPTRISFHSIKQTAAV
Method in brief: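 Steps: thaw and wash cells; suspend in 1×HBSS, 20 mM HEPES, 0 or 0.1% HSA, 2 mM IBMX; add compound, 30 min RT; lyse with HTRF reagents, 1 h; read 665/620 nm. EC50 calculated, E% versus 1000 nM UCN2.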

CRF1R receptor = molecular target: T2, CRF1R receptor (Homo sapiens, UniProt P34998); experiment: cAMP activity at anti-target CRF1R, CHO-K1 cell line clone 2 (Example 19.10); format: cell-based; settings: CRF1R CHO-K1 clone 2; for EC50: 0% HSA, read-out: EC50 [nM] 0% HSA; for Emax: 100% = Sauvagine at 100 nM
T2 construct: host or cells: CHO-K1 clone 2
T2 sequence (P34998 24-415): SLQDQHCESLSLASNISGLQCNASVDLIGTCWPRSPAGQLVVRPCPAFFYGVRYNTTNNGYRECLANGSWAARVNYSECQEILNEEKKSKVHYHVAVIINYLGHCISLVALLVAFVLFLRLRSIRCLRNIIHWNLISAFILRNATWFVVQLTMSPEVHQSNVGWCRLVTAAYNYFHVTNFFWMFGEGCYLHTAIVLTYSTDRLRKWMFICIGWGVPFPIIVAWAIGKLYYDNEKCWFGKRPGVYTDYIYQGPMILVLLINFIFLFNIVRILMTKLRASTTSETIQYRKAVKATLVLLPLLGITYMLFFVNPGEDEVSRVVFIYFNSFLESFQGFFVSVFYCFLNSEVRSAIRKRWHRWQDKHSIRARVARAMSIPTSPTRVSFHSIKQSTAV
Method in brief: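 A CRF1R-overexpressing CHO-K1 line (clone 2) was grown in F12/10% FBS/G418 and frozen in aliquots before use. The cAMP assay followed the preceding procedure, with 100% activation defined by Sauvagine at 100 nM.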

[1] = 0% HSA, read-out: EC50 [nM], 0% HSA
[2] = 0.1% HSA, read-out: EC50 [nM], 0.1% HSA

| SMILES | EC50 (human CRF2α receptor; [1]) [nM] | EC50 (CRF1R receptor) [nM] | Emax (CRF1R receptor) [%] | EC50 (human CRF2α receptor; [2]) [nM] |
| --- | --- | --- | --- | --- |
| CC[C@H](C)[C@H](N)C(=O)N[C@H](C(=O)N[C@@H](CC(C)C)C(=O)N[C@@H](CO)C(=O)N[C@@H](CC(C)C)C(=O)N[C@@H](CC(=O)O)C(=O)N[C@H](C(=O)N1CCC[C@H]1C(=O)N[C@H](C(=O)N[C@@H](CCCCN)C(=O)N[C@@H](CC(C)C)C(=O)N[C@@H](CCCCNC(=O)COCCOCCNC(=O)COCCOCCNC(=O)CC[C@H](NC(=O)CCCCCCCCCCCCCCCCC(=O)O)C(=O)O)C(=O)N[C@@H](CCC(N)=O)C(=O)N[C@H](C(=O)N[C@@H](CC(C)C)C(=O)N[C@@H](CC(C)C)C(=O)N[C@@H](CCCCN)C(=O)N[C@@H](CCC(N)=O)C(=O)N[C@@H](CCC(=O)O)C(=O)N[C@@H](CCCNC(=N)N)C(=O)N[C@@H](CCC(N)=O)C(=O)N[C@@H](CCCCN)C(=O)NC(C)(C)C(=O)N[C@@H](CCC(N)=O)C(=O)N[C@@H](CCCNC(=N)N)C(=O)N[C@@H](CCC(=O)O)C(=O)N[C@@H](CCC(N)=O)C(=O)N[C@@H](C)C(=O)N[C@@H](CCC(=O)O)C(=O)N[C@H](C(=O)N[C@@H](CC(N)=O)C(=O)N[C@@H](CCCCN)C(=O)N[C@@H](CCC(N)=O)C(=O)N[C@H](C(=O)N[C@@H](CC(C)C)C(=O)N[C@@H](C)C(=O)N[C@@H](CCC(N)=O)C(=O)N[C@H](C(N)=O)C(C)C)[C@@H](C)CC)[C@@H](C)O)[C@@H](C)CC)[C@@H](C)CC)C(C)C)C(C)C [compound 104] (H-IVLSLDVPIKLK([AEEA-AEEA-γGlu-C18 diacid])QILLKQERQK[Aib]QREQAETNKQILAQV-NH2) | 0.32 | > 100 | 3.7 | – |
| CC[C@H](C)[C@H](N)C(=O)N[C@H](C(=O)N[C@@H](CC(C)C)C(=O)N[C@@H](CO)C(=O)N[C@@H](CC(C)C)C(=O)N[C@@H](CC(=O)O)C(=O)N[C@H](C(=O)N1CCC[C@H]1C(=O)N[C@H](C(=O)N[C@@H](CCCCN)C(=O)N[C@@H](CC(C)C)C(=O)N[C@@H](CCCCNC(=O)COCCOCCNC(=O)COCCOCCNC(=O)CC[C@H](NC(=O)CCCCCCCCCCCCCCCCC(=O)O)C(=O)O)C(=O)N[C@@H](CCC(N)=O)C(=O)N[C@H](C(=O)N[C@@H](CC(C)C)C(=O)N[C@@H](CC(C)C)C(=O)N[C@@H](CCC(=O)O)C(=O)N[C@@H](CCC(N)=O)C(=O)N[C@@H](CCC(=O)O)C(=O)N[C@@H](CCCNC(=N)N)C(=O)N[C@@H](CCC(N)=O)C(=O)N[C@@H](CCCCN)C(=O)NC(C)(C)C(=O)N[C@@H](CCC(N)=O)C(=O)N[C@@H](CCCNC(=N)N)C(=O)N[C@@H](CCC(N)=O)C(=O)N[C@@H](CCC(N)=O)C(=O)N[C@@H](C)C(=O)N[C@@H](CCC(=O)O)C(=O)N[C@H](C(=O)N[C@@H](CC(N)=O)C(=O)N[C@@H](CCCCN)C(=O)N[C@@H](CCC(N)=O)C(=O)N[C@H](C(=O)N[C@@H](CC(C)C)C(=O)N[C@@H](C)C(=O)N[C@@H](CCC(N)=O)C(=O)N[C@H](C(N)=O)C(C)C)[C@@H](C)CC)[C@@H](C)O)[C@@H](C)CC)[C@@H](C)CC)C(C)C)C(C)C [compound 105] (H-IVLSLDVPIKLK([AEEA-AEEA-γGlu-C18 diacid])QILLEQERQK[Aib]QRQQAETNKQILAQV-NH2) | 0.41 | > 100 | 15.4 | 15.3 |
| CC[C@H](C)[C@H](N)C(=O)N[C@H](C(=O)N[C@@H](CC(C)C)C(=O)N[C@@H](CO)C(=O)N[C@@H](CC(C)C)C(=O)N[C@@H](CC(=O)O)C(=O)N[C@H](C(=O)N1CCC[C@H]1C(=O)N[C@H](C(=O)N[C@@H](CCCCN)C(=O)N[C@@H](CC(C)C)C(=O)N[C@@H](CCCCNC(=O)COCCOCCNC(=O)COCCOCCNC(=O)CC[C@H](NC(=O)CCCCCCCCCCCCCCCCC(=O)O)C(=O)O)C(=O)N[C@@H](CCC(N)=O)C(=O)N[C@H](C(=O)N[C@@H](CC(C)C)C(=O)N[C@@H](CC(C)C)C(=O)N[C@@H](CCC(=O)O)C(=O)N[C@@H](CCC(N)=O)C(=O)N[C@@H](CCC(=O)O)C(=O)N[C@@H](CCCNC(=N)N)C(=O)N[C@@H](CCC(N)=O)C(=O)N[C@@H](CCCCN)C(=O)NC(C)(C)C(=O)N[C@@H](CCC(N)=O)C(=O)N[C@@H](CCCNC(=N)N)C(=O)N[C@@H](CCC(=O)O)C(=O)N[C@@H](CCC(N)=O)C(=O)N[C@@H](C)C(=O)N[C@@H](CCC(=O)O)C(=O)N[C@H](C(=O)N[C@@H](CC(N)=O)C(=O)N[C@@H](CCCCN)C(=O)N[C@@H](CCC(N)=O)C(=O)N[C@H](C(=O)N[C@@H](CC(C)C)C(=O)N[C@@H](CCC(=O)O)C(=O)N[C@@H](CCCNC(=N)N)C(=O)N[C@H](C(N)=O)C(C)C)[C@@H](C)CC)[C@@H](C)O)[C@@H](C)CC)[C@@H](C)CC)C(C)C)C(C)C [compound 106] (H-IVLSLDVPIKLK([AEEA-AEEA-γGlu-C18 diacid])QILLEQERQK[Aib]QREQAETNKQILERV-NH2) | 0.53 | > 100 | 5.1 | 13.2 |
| CC[C@H](C)[C@H](N)C(=O)N[C@H](C(=O)N[C@@H](CC(C)C)C(=O)N[C@@H](CO)C(=O)N[C@@H](CC(C)C)C(=O)N[C@@H](CC(=O)O)C(=O)N[C@H](C(=O)N1CCC[C@H]1C(=O)N[C@H](C(=O)N[C@@H](CCCCN)C(=O)N[C@@H](CC(C)C)C(=O)N[C@@H](CCCCNC(=O)COCCOCCNC(=O)COCCOCCNC(=O)CC[C@H](NC(=O)CCCCCCCCCCCCCCCCC(=O)O)C(=O)O)C(=O)N[C@@H](CCC(N)=O)C(=O)N[C@H](C(=O)N[C@@H](CC(C)C)C(=O)N[C@@H](CC(C)C)C(=O)N[C@@H](CCCCN)C(=O)N[C@@H](CCC(N)=O)C(=O)N[C@@H](CCC(=O)O)C(=O)N[C@@H](CCCNC(=N)N)C(=O)N[C@@H](CCC(N)=O)C(=O)N[C@@H](CCCCN)C(=O)NC(C)(C)C(=O)N[C@@H](CCC(N)=O)C(=O)N[C@@H](CCCNC(=N)N)C(=O)N[C@@H](CCC(N)=O)C(=O)N[C@@H](CCCCN)C(=O)N[C@@H](C)C(=O)N[C@@H](CCC(=O)O)C(=O)N[C@H](C(=O)N[C@@H](CC(N)=O)C(=O)N[C@@H](CCCCN)C(=O)N[C@@H](CCC(N)=O)C(=O)N[C@H](C(=O)N[C@@H](CC(C)C)C(=O)N[C@@H](C)C(=O)N[C@@H](CCC(N)=O)C(=O)N[C@H](C(N)=O)C(C)C)[C@@H](C)CC)[C@@H](C)O)[C@@H](C)CC)[C@@H](C)CC)C(C)C)C(C)C [compound 108] (H-IVLSLDVPIKLK([AEEA-AEEA-γGlu-C18 diacid])QILLKQERQK[Aib]QRQKAETNKQILAQV-NH2; N-terminus assumed) | 0.23 | > 100 | -2 | – |
| CC[C@H](C)[C@H](N)C(=O)N[C@H](C(=O)N[C@@H](CC(C)C)C(=O)N[C@@H](CO)C(=O)N[C@@H](CC(C)C)C(=O)N[C@@H](CC(=O)O)C(=O)N[C@H](C(=O)N1CCC[C@H]1C(=O)N[C@H](C(=O)N[C@@H](CCCCN)C(=O)N[C@@H](CC(C)C)C(=O)N[C@@H](CCCCNC(=O)COCCOCCNC(=O)COCCOCCNC(=O)CC[C@H](NC(=O)CCCCCCCCCCCCCCCCC(=O)O)C(=O)O)C(=O)N[C@@H](CCC(N)=O)C(=O)N[C@H](C(=O)N[C@@H](CC(C)C)C(=O)N[C@@H](CC(C)C)C(=O)N[C@@H](CCCCN)C(=O)N[C@@H](CCC(N)=O)C(=O)N[C@@H](CCC(=O)O)C(=O)N[C@@H](CCCNC(=N)N)C(=O)N[C@@H](CCC(N)=O)C(=O)N[C@@H](CCCCN)C(=O)NC(C)(C)C(=O)N[C@@H](CCC(N)=O)C(=O)N[C@@H](CCCNC(=N)N)C(=O)N[C@@H](CCC(=O)O)C(=O)N[C@@H](CCCCN)C(=O)N[C@@H](C)C(=O)N[C@@H](CCC(=O)O)C(=O)N[C@H](C(=O)N[C@@H](CC(N)=O)C(=O)N[C@@H](CCCCN)C(=O)N[C@@H](CCC(N)=O)C(=O)N[C@H](C(=O)N[C@@H](CC(C)C)C(=O)N[C@@H](C)C(=O)N[C@@H](CCC(N)=O)C(=O)N[C@H](C(N)=O)C(C)C)[C@@H](C)CC)[C@@H](C)O)[C@@H](C)CC)[C@@H](C)CC)C(C)C)C(C)C [compound 109] (H-IVLSLDVPIKLK([AEEA-AEEA-γGlu-C18 diacid])QILLKQERQK[Aib]QREKAETNKQILAQV-NH2) | 0.95 | > 100 | 1.1 | – |
